Data published in patent publication US20080227768A1, “Crystal of 1-Methylcarbapenem Compound” (priority 2005, published 2008).
Read-outs that look alike come from different tables or passages of the source.

Experiments:
[1] = Water Solubility Test (time to completely dissolve); assay type: physicochemical; conditions: for Dissolving time: 300 mg of crystals sized through 150 μm mesh, 10 ml of water, 25° C., complete dissolution
Source text: The crystalline form of the present invention obtained according to Example 2 and a crystalline form described in Japanese Patent Application Publication (Kokai) No. 2001-72681 ((1R,5S,6S)-6-[(1R)-1-hydroxyethyl]-1-methyl-2-[(2S,4S)-2-[(3S)-3-(2-guanidinoacetylamino)pyrrolidin-1-ylcarbonyl]-1-methylpyrrolidin-4-ylthio]-1-carbepen-2-em-3-carboxylic acid, referred to as Crystalline form 2) were sized by passing through a 150 μm mesh filter followed by measurement of the amount of time required for 300 mg of the crystals to completely dissolve in 10 ml of water at 25° C.

[2] = Storage Stability Test-1 (sealed brown glass bottle, 25° C., purity by HPLC); assay type: physicochemical; conditions: HPLC peak area ratio
Description: The crystalline form of the present invention obtained according to Example 2 and a crystalline form described in Japanese Patent Application Publication (Kokai) No. 2001-72681 ((1R,5S,6S)-6-[(1R)-1-hydroxyethyl]-1-methyl-2-[(2S,4S)-2-[(3S)-3-(2-guanidinoacetylamino)pyrrolidin-1-ylcarbonyl]-1-methylpyrrolidin-4-ylthio]-1-carbepen-2-em-3-carboxylic acid·monoethanolate·trihydrate, referred to as Crystalline form 1) were sealed in a brown glass bottle at a constant temperature of 25° C. followed by measurement of purity at the start of the test, one month later and two months later using high performance liquid chromatography (column: Develosil RPAQUEOUS 4.6×150 mm, column temperature: 60° C., developer flow rate: 1.0 ml/min, developer: 0.02 M aqueous potassium dihydrogen phosphate solution/acetonitrile=95/5 to 50/50). The resulting purities were represented as the ratios of the areas of the chromatographic peaks.

[3] = Storage Stability Test-2 (sealed brown glass bottle, 40° C., purity by HPLC); assay type: physicochemical; conditions: HPLC peak area ratio
Description: The crystalline form of the present invention obtained according to Example 2 and Crystalline form 1 were sealed in a brown glass bottle at a constant temperature of 40° C. followed by measurement of purity at the start of the test and one month later using high performance liquid chromatography (column: Develosil RPAQUEOUS 4.6×150 mm, column temperature: 60° C., developer flow rate: 1.0 ml/min, developer: 0.02 M aqueous potassium dihydrogen phosphate solution/acetonitrile=95/5 to 50/50). The resulting purities were represented as the ratios of the areas of the chromatographic peaks.

[4] = tested on: Gram-negative bacteria and Gram-positive bacteria; conditions: cited from earlier work

SMILES	Dissolving time [1] [min]	solubility in water (in words) ([1]; compared with the known crystalline form)	Purity (%) 1 month later [2] [%]	Purity (%) 2 months later [2] [%]	Purity (%) Start of test [2] [%]	Purity 1 month later (%) [3] [%]	Purity at start of test (%) [3] [%]	antibacterial activity ([4]; from Patent Documents 1 and 2, listed as formula (I))	antibacterial activity ([4]; from Patent Documents 1 and 2)
C[C@@H](O)[C@H]1C(=O)N2C(C(=O)O)=C(S[C@H]3C[C@@H](C(=O)N4CC[C@H](NC(=O)CNC(=N)N)C4)N(C)C3)[C@H](C)[C@H]12 [Crystalline form 2, (1R,5S,6S)-6-[(1R)-1-hydroxyethyl]-1-methyl-2-[(2S,4S)-2-[(3S)-3-(2-guanidinoacetylamino)pyrrolidin-1-ylcarbonyl]-1-methylpyrrolidin-4-ylthio]-1-carbepen-2-em-3-carboxylic acid, reference compound]	8.0	–	–	–	–	–	–	–	–
C[C@@H](O)[C@H]1C(=O)N2C(C(=O)O)=C(S[C@H]3C[C@@H](C(=O)N4CC[C@H](NC(=O)CNC(=N)N)C4)N(C)C3)[C@H](C)[C@H]12 (stereo in doubt) [Crystalline form of present invention, (1R,5S,6S)-6-[(1R)-1-Hydroxyethyl]-1-methyl-2-[(2S,4S)-2-[(3S)-3-(2-guanidinoacetylamino)pyrrolidin-1-ylcarbonyl]-1-methylpyrrolidin-4-ylthio]-1-carbapen-2-em-3-carboxylic acid acetonate]	2.5	superior to that of the known crystalline form	98.43	98.40	98.35	98.35	98.35	–	–
CCO.C[C@@H](O)[C@H]1C(=O)N2C(C(=O)O)=C(S[C@H]3C[C@@H](C(=O)N4CC[C@H](NC(=O)CNC(=N)N)C4)N(C)C3)[C@H](C)[C@H]12.O.O.O [Crystalline form 1, (1R,5S,6S)-6-[(1R)-1-hydroxyethyl]-1-methyl-2-[(2S,4S)-2-[(3S)-3-(2-guanidinoacetylamino)pyrrolidin-1-ylcarbonyl]-1-methylpyrrolidin-4-ylthio]-1-carbepen-2-em-3-carboxylic acid·monoethanolate·trihydrate, reference compound]	–	–	98.35	98.06	98.45	98.26	98.45	–	–
C[C@@H](O)[C@H]1C(=O)N2C(C(=O)O)=C(S[C@H]3C[C@@H](C(=O)N4CC[C@H](NC(=O)CNC(=N)N)C4)N(C)C3)[C@H](C)[C@H]12 [compound (I), (1R,5S,6S)-6-[(1R)-1-hydroxyethyl]-1-methyl-2-[(2S,4S)-2-[(3S)-3-(2-guanidinoacetylamino)pyrrolidin-1-ylcarbonyl]-1-methylpyrrolidin-4-ylthio]-1-carbapen-2-em-3-carboxylic acid]	–	–	–	–	–	–	–	potent antibacterial activity	excellent antibacterial activity
